Laboratory results taken from US12162881B2, “Forms and compositions of inhibitors of JAK2” (Ajax Therapeutics, Inc., priority 2021, dated 2024).
Converted amounts (≈) assume the structure as drawn. Like-named read-outs stand apart in the source and are kept apart here. Each block holds one compound with its values, some of them ahead of it.

Columns and labels:
Type in all cases: physicochemical
[1] = Variable relative humidity XRPD (VRH-XRPD)
Method: XRPD patterns were collected with a PANalytical X'Pert PRO MPD diffractometer using an incident beam of Cu Kα radiation produced using a long, fine-focus source and a nickel filter. The diffractometer was configured using the symmetric Bragg-Brentano geometry. Data were collected and analyzed using Data Collector software v. 5.5. Prior to the analysis, a silicon specimen (NIST SRM 640f) was analyzed to verify the observed position of the Si 111 peak is consistent with the NIST-certified position. A specimen of the sample was packed in a nickel-coated copper well. Antiscatter slits (SS) were used to minimize the background generated by air. Soller slits for the incident and diffracted beams were used to minimize broadening from axial divergence. Diffraction patterns were collected using a scanning position-sensitive detector (X'Celerator) located 240 mm from the sample and Data Collector software v. 5.5.
An Anton Paar temperature-humidity chamber (THC) was used while collecting in-situ XRPD patterns as a function of humidity. The temperature of the specimen was changed with a Peltier thermoelectric device located directly under the specimen holder and monitored with a platinum-100 resistance sensor located in the specimen holder. The thermoelectric device was powered and controlled by an Anton Paar TCU 50 interfaced with Data Collector. The humidity was generated with an RH-200 manufactured by VTI Inc. and carried by a flow of nitrogen gas. The humidity was monitored by a HygroClip sensor manufactured by Rotronic located next to the specimen inside the THC.
VRH-XRPD analysis was conducted to help determine water activity boundary for the solid-state conversion between hydrated Form A and anhydrous Form B. This method was utilized due the observed high tendency of Compound 1 to form solvates, which precluded the use of solvent-mediated approach.
Overall, two VRH-XRPD experiments were conducted to qualitatively evaluate RH conditions leading to predominance of Form A over Form B and vice versa. The kinetic component was not assessed.
The first VRH-XRPD experiment was conducted with a goal of observing dehydration of hydrated Form A. An initial XRPD scan was, therefore, acquired on Form A equilibrated in-situ at ambient RH for 45 minutes, which at the time of the analysis was ˜30%. The XRPD pattern from this scan was consistent with Form A (FIG. 39, top).
XRPD patterns were collected throughout the course of the experiment, each with a 10 minute scan.
XRPD patterns were collected throughout the course of the experiment, each with a 10 minute scan. The XRPD patterns remained Form B until the RH reached approximately 60% RH, where Form A became the primary phase with some Form B remaining (FIG. 41, top two spectra). Further decrease of Form B was observed through the remainder of the 60% RH hold at which point the experiment ended (FIG. 41, bottom two spectra). Complete conversion to Form A from Form B was not observed under these conditions.

[2] = Kinetic solubility of Compound 1 Lot II, visually estimated at ambient temperature; details: thermodynamic from solid
Method: Kinetic solubility of Compound 1 Lot II was visually estimated at ambient temperature (Table 22). Aliquots of various solvents were added to weighed samples of Compound 1 Lot II with agitation at ambient temperature until complete dissolution was achieved, as judged by visual observation. If dissolution occurred after the addition of the first aliquot, values were reported as “>”.

[3] = Dynamic vapor sorption (DVS) hygroscopicity; details: for Hysteresis: in % (unit assumed)
Method: Automated vapor sorption (VS) data were collected on a Surface Measurement System DVS Intrinsic instrument. Samples were not dried prior to analysis. Sorption and desorption data were collected over a range from 5% to 95% RH at 10% RH increments under a nitrogen purge. The equilibrium criterion used for analysis was less than 0.0100% weight change in 5 minutes with a maximum equilibration time of 3 hours. Data were not corrected for the initial moisture content of the samples.

[4] = Target RH 5.0%, listed as Lot II
[5] = Target RH 15.0%, listed as Lot II
[6] = Target RH 25.0%, listed as Lot II
[7] = Target RH 35.0%, listed as Lot II
[8] = Target RH 45.0%, listed as Lot II
[9] = Target RH 55.0%, listed as Lot II
[10] = Target RH 65.0%, listed as Lot II
[11] = Target RH 75.0%, listed as Lot II
[12] = Target RH 85.0%, listed as Lot II
[13] = Target RH 95.0%, listed as Lot II
[14] = desorption from 95% to 5% RH, listed as Lot II
[15] = sorption from 5% to 95% RH, listed as Lot II

- RH at which Form A became the primary phase ([1]; Experiment 2, RH incrementally increased from 15%, starting from Form B): approximately 60 % RH
- RH below which the form likely exists ([1]; VRH-XRPD and DVS data combined): below 20 % RH
- RH up to which the form may be kinetically stable ([1]; VRH-XRPD and DVS data combined): 40-60 % RH
Compound: CC(=O)Nc1cc(Oc2cnc3nc(Nc4cc(C(F)(F)F)cn(C)c4=O)n(C)c3c2C#N)ccn1 [Compound 1 Form B, N-(4-((7-cyano-1-methyl-2-((1-methyl-2-oxo-5-(trifluoromethyl)-1,2-dihydropyridin-3-yl)amino)-1H-imidazo[4,5-b]pyridin-6-yl)oxy)pyridin-2-yl)acetamide]

- solubility ([2]; 5:95 HFIPA/H2O (v/v), aqueous with cosolvent or surfactant or cyclodextrin, 5:95 HFIPA/H2O (v/v), ambient temperature, read-out: Solubility (mg/mL)): < 1 mg/mL
- solubility ([2]; 50:50 DMA/H2O (v/v), aqueous with cosolvent or surfactant or cyclodextrin, 50:50 DMA/H2O (v/v), ambient temperature, read-out: Solubility (mg/mL)): < 1 mg/mL
- solubility ([2]; 50:50 MeOH/CHCl3 (v/v), organic solvent or mixture, 50:50 MeOH/CHCl3 (v/v), ambient temperature, read-out: Solubility (mg/mL)): 5 to 20 mg/mL (≈ 10 to 40.1 mM)
- solubility ([2]; 50:50 MeOH/DCM (v/v), organic solvent or mixture, 50:50 MeOH/DCM (v/v), ambient temperature, read-out: Solubility (mg/mL)): 5 to 20 mg/mL (≈ 10 to 40.1 mM)
- solubility ([2]; 50:50 MeOH/H2O (v/v), aqueous with cosolvent or surfactant or cyclodextrin, 50:50 MeOH/H2O (v/v), ambient temperature, read-out: Solubility (mg/mL)): < 1 mg/mL
- solubility ([2]; 50:50 TFE/H2O (v/v), aqueous with cosolvent or surfactant or cyclodextrin, 50:50 TFE/H2O (v/v), ambient temperature, read-out: Solubility (mg/mL)): 1 to 4.9 mg/mL (≈ 2.01 to 9.83 mM)
- solubility ([2]; 50:50 THF/H2O (v/v), aqueous with cosolvent or surfactant or cyclodextrin, 50:50 THF/H2O (v/v), ambient temperature, read-out: Solubility (mg/mL)): 1 to 4.9 mg/mL (≈ 2.01 to 9.83 mM)
- solubility ([2]; 50:50 acetone/water (v/v), aqueous with cosolvent or surfactant or cyclodextrin, 50:50 acetone/water (v/v), ambient temperature, read-out: Solubility (mg/mL)): 1 to 4.9 mg/mL (≈ 2.01 to 9.83 mM)
- solubility ([2]; ACN, organic solvent or mixture, ACN, ambient temperature, read-out: Solubility (mg/mL)): < 1 mg/mL
- solubility ([2]; AcOH, organic solvent or mixture, AcOH, ambient temperature, read-out: Solubility (mg/mL)): 5 to 20 mg/mL (≈ 10 to 40.1 mM)
- solubility ([2]; CHCl3, organic solvent or mixture, CHCl3, ambient temperature, read-out: Solubility (mg/mL)): < 1 mg/mL
- solubility ([2]; DCM, organic solvent or mixture, DCM, ambient temperature, read-out: Solubility (mg/mL)): < 1 mg/mL
- solubility ([2]; DMA, organic solvent or mixture, DMA, ambient temperature, read-out: Solubility (mg/mL)): 5 to 20 mg/mL (≈ 10 to 40.1 mM)
- solubility ([2]; DMF, organic solvent or mixture, DMF, ambient temperature, read-out: Solubility (mg/mL)): 1 to 4.9 mg/mL (≈ 2.01 to 9.83 mM)
- solubility ([2]; DMSO, organic solvent or mixture, DMSO, ambient temperature, read-out: Solubility (mg/mL)): 5 to 20 mg/mL (≈ 10 to 40.1 mM)
- solubility ([2]; H2O, water, H2O, ambient temperature, read-out: Solubility (mg/mL)): < 1 mg/mL
- solubility ([2]; HFIPA, organic solvent or mixture, HFIPA, ambient temperature, read-out: Solubility): 84 mg/mL (≈ 169 mM)
- solubility ([2]; HFIPA, organic solvent or mixture, HFIPA, ambient temperature, read-out: Solubility (mg/mL)): 5 to 20 mg/mL (≈ 10 to 40.1 mM)
- solubility ([2]; MeOH, organic solvent or mixture, MeOH, ambient temperature, read-out: Solubility (mg/mL)): < 1 mg/mL
- solubility ([2]; NMP, organic solvent or mixture, NMP, ambient temperature, read-out: Solubility (mg/mL)): 5 to 20 mg/mL (≈ 10 to 40.1 mM)
- solubility ([2]; TFE, organic solvent or mixture, TFE, ambient temperature, read-out: Solubility (mg/mL)): 5 to 20 mg/mL (≈ 10 to 40.1 mM)
- solubility ([2]; THF, organic solvent or mixture, THF, ambient temperature, solution almost completely clear after 24 h, read-out: Solubility (mg/mL)): 1 to 4.9 mg/mL (≈ 2.01 to 9.83 mM)
- solubility ([2]; THF, organic solvent or mixture, THF, left at ambient temperature overnight, read-out: Solubility): ≥ 1 mg/mL
- solubility ([2]; acetone, organic solvent or mixture, Acetone, ambient temperature, read-out: Solubility (mg/mL)): < 1 mg/mL
- solubility ([2]; ethylene glycol, organic solvent or mixture, Ethylene glycol, ambient temperature, read-out: Solubility (mg/mL)): < 1 mg/mL
- solubility ([2]; organic solvent or mixture, AcOH, DMF, DMSO, 50:50 MeOH/DCM, 50:50 MeOH/CHCl3, NMP, TFE, and 50:50 TFE/H2O, ambient temperature, read-out: Solubility (limited solubility values)): 1 to 20 mg/mL (≈ 2.01 to 40.1 mM)
- Desorp Mass Change (%) [3, 4]: −0.019%
- Sorp Mass Change (%) [3, 4]: 0.000%
- Desorp Mass Change (%) [3, 5]: 0.332%
- Sorp Mass Change (%) [3, 5]: 0.152%
- Hysteresis [3, 5]: 0.180
- Desorp Mass Change (%) [3, 6]: 5.623%
- Sorp Mass Change (%) [3, 6]: 0.250%
- Hysteresis [3, 6]: 5.373
- Desorp Mass Change (%) [3, 7]: 6.984%
- Sorp Mass Change (%) [3, 7]: 1.468%
- Hysteresis [3, 7]: 5.516
- Desorp Mass Change (%) [3, 8]: 7.374%
- Sorp Mass Change (%) [3, 8]: 4.861%
- Hysteresis [3, 8]: 2.513
- Desorp Mass Change (%) [3, 9]: 7.842%
- Sorp Mass Change (%) [3, 9]: 6.99%
- Hysteresis [3, 9]: 0.848
- Desorp Mass Change (%) [3, 10]: 8.505%
- Sorp Mass Change (%) [3, 10]: 7.697%
- Hysteresis [3, 10]: 0.808
- Desorp Mass Change (%) [3, 11]: 8.972%
- Sorp Mass Change (%) [3, 11]: 8.454%
- Hysteresis [3, 11]: 0.518
- Desorp Mass Change (%) [3, 12]: 9.206%
- Sorp Mass Change (%) [3, 12]: 9.042%
- Hysteresis [3, 12]: 0.164
- Desorp Mass Change (%) [3, 13]: 9.408%
- Sorp Mass Change (%) [3, 13]: 9.408%
- DVS weight loss upon desorption [3, 14]: 9.4%
- DVS weight loss upon desorption as water [3, 14]: approximately 2.9 mol/mol H2O
- DVS weight gain [3, 15]: 9.4%
- DVS weight gain as water uptake [3, 15]: approximately 2.9 mol/mol H2O
- DVS weight gain ([3]; sorption from 25% to 55% RH): 6.7%
- DVS weight gain as water uptake ([3]; sorption from 25% to 55% RH): ~2.0 mol/mol H2O
- DVS hysteresis observation ([3]; sorption/desorption 5-95% RH, listed as Lot II): Hysteresis was observed
Compound: CC(=O)Nc1cc(Oc2cnc3nc(Nc4cc(C(F)(F)F)cn(C)c4=O)n(C)c3c2C#N)ccn1 [Compound 1 Lot II, N-(4-((7-cyano-1-methyl-2-((1-methyl-2-oxo-5-(trifluoromethyl)-1,2-dihydropyridin-3-yl)amino)-1H-imidazo[4,5-b]pyridin-6-yl)oxy)pyridin-2-yl)acetamide]
- post-DVS XRPD ([3]; solid recovered after DVS cycle, listed as Lot II): mostly Form B with some peaks attributed to Form O present
